Data from PubChem BioAssay (NCI).
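In this assay, cells in 96-well plates receive the compound at five concentrations for 48 hours. Endpoints are linearly interpolated between the surrounding concentrations. GI50 is the concentration that inhibits growth by half. Definition used: TGI = concentration required for complete inhibition of growth.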

Columns and labels:
Assay in all cases: NCI tumour cell line growth inhibition, 48 h
HCT-116 colon = test system: HCT-116 colon
CCRF-CEM leukemia = test system: CCRF-CEM leukemia
NCI/ADR-RES ovarian = test system: NCI/ADR-RES ovarian
SW-620 colon = test system: SW-620 colon
OVCAR-4 ovarian = test system: OVCAR-4 ovarian
SNB-19 CNS = test system: SNB-19 CNS
SK-MEL-5 melanoma = test system: SK-MEL-5 melanoma
MDA-MB-231 breast = test system: MDA-MB-231 breast
HT29 colon = test system: HT29 colon
DU-145 prostate = test system: DU-145 prostate
KM12 colon = test system: KM12 colon
M14 melanoma = test system: M14 melanoma
SF-295 CNS = test system: SF-295 CNS
MDA-MB-435 = test system: MDA-MB-435
OVCAR-5 ovarian = test system: OVCAR-5 ovarian
K-562 leukemia = test system: K-562 leukemia
HS 578T breast = test system: HS 578T breast
NCI-H23 lung = test system: NCI-H23 lung
HL-60(TB) leukemia = test system: HL-60(TB) leukemia
IGROV1 ovarian = test system: IGROV1 ovarian
ACHN renal = test system: ACHN renal
SF-539 CNS = test system: SF-539 CNS
SK-MEL-28 melanoma = test system: SK-MEL-28 melanoma
U251 CNS = test system: U251 CNS
OVCAR-8 ovarian = test system: OVCAR-8 ovarian
TK-10 renal = test system: TK-10 renal
COLO 205 colon = test system: COLO 205 colon
786-0 renal = test system: 786-0 renal
UO-31 renal = test system: UO-31 renal
UACC-62 melanoma = test system: UACC-62 melanoma
SK-OV-3 ovarian = test system: SK-OV-3 ovarian
PC-3 prostate = test system: PC-3 prostate
CAKI-1 renal = test system: CAKI-1 renal
EKVX NSCLC = test system: EKVX NSCLC
SN12C renal = test system: SN12C renal
A549 NSCLC = test system: A549 NSCLC
SF-268 CNS = test system: SF-268 CNS
SK-MEL-2 melanoma = test system: SK-MEL-2 melanoma
MCF7 breast = test system: MCF7 breast
T-47D breast = test system: T-47D breast
RXF 393 renal = test system: RXF 393 renal
NCI-H522 lung = test system: NCI-H522 lung
A498 renal = test system: A498 renal
SNB-75 CNS = test system: SNB-75 CNS
HCC-2998 colon = test system: HCC-2998 colon
NCI-H460 lung = test system: NCI-H460 lung
HOP-92 NSCLC = test system: HOP-92 NSCLC
UACC-257 melanoma = test system: UACC-257 melanoma
BT-549 breast = test system: BT-549 breast
MALME-3M melanoma = test system: MALME-3M melanoma
MOLT-4 leukemia = test system: MOLT-4 leukemia
HOP-62 NSCLC = test system: HOP-62 NSCLC
RPMI-8226 leukemia = test system: RPMI-8226 leukemia
LOX IMVI melanoma = test system: LOX IMVI melanoma
NCI-H226 lung = test system: NCI-H226 lung
SR leukemia = test system: SR leukemia
HCT-15 colon = test system: HCT-15 colon
OVCAR-3 ovarian = test system: OVCAR-3 ovarian

## C=C(C=O)[C@@H]1CC[C@]2(C(=O)O)CC[C@]3(C)C(CC[C@@H]4[C@@](C)(CCC#N)[C@H](C(=C)C=O)CC[C@]43C)[C@@H]12 (some centres undefined)
HCT-116 colon
  GI50: 1.8 µM
  TGI: 3.46 µM
CCRF-CEM leukemia
  GI50: 2.78 µM
  TGI: 8.75 µM
NCI/ADR-RES ovarian
  GI50: 3.87 µM
  TGI: 34.5 µM
SW-620 colon
  GI50: 2.18 µM
  TGI: 4.79 µM
OVCAR-4 ovarian
  GI50: 4.22 µM
  TGI: 23.5 µM
SNB-19 CNS
  GI50: 3.93 µM
  TGI: 18.3 µM
SK-MEL-5 melanoma
  GI50: 1.78 µM
  TGI: 3.33 µM
MDA-MB-231 breast
  GI50: 3.05 µM
  TGI: 9.1 µM
HT29 colon
  GI50: 1.99 µM
  TGI: 4.03 µM
DU-145 prostate
  GI50: 3.72 µM
  TGI: 12.7 µM
KM12 colon
  GI50: 3.22 µM
  TGI: 10.6 µM
M14 melanoma
  GI50: 1.92 µM
  TGI: 4.1 µM
SF-295 CNS
  GI50: 3.07 µM
  TGI: 11.6 µM
MDA-MB-435
  GI50: 3.21 µM
  TGI: 11.4 µM
OVCAR-5 ovarian
  GI50: 2.37 µM
  TGI: 6.69 µM
K-562 leukemia
  GI50: 2.76 µM
  TGI: 9.34 µM
HS 578T breast
  GI50: 3.17 µM
  TGI: 18.9 µM
NCI-H23 lung
  GI50: 2.13 µM
  TGI: 4.87 µM
HL-60(TB) leukemia
  GI50: 2.02 µM
  TGI: 7.8 µM
IGROV1 ovarian
  GI50: 2.82 µM
  TGI: 8.47 µM
ACHN renal
  GI50: 3.26 µM
  TGI: 10.5 µM
SF-539 CNS
  GI50: 2.91 µM
  TGI: 9.31 µM
SK-MEL-28 melanoma
  GI50: 2.45 µM
  TGI: 6.22 µM
U251 CNS
  GI50: 1.88 µM
  TGI: 3.84 µM
OVCAR-8 ovarian
  GI50: 2.59 µM
  TGI: 7.06 µM
TK-10 renal
  GI50: 3.34 µM
  TGI: 13.5 µM
COLO 205 colon
  GI50: 10.9 µM
  TGI: 27.7 µM
786-0 renal
  GI50: 1.86 µM
  TGI: 3.8 µM
UO-31 renal
  GI50: 2.5 µM
  TGI: 8.02 µM
UACC-62 melanoma
  GI50: 2 µM
  TGI: 4.88 µM
SK-OV-3 ovarian
  GI50: 8.49 µM
  TGI: 23.1 µM
PC-3 prostate
  GI50: 1.95 µM
  TGI: 5.28 µM
CAKI-1 renal
  GI50: 3.38 µM
  TGI: 15.4 µM
EKVX NSCLC
  GI50: 6.64 µM
  TGI: 23.9 µM
SN12C renal
  GI50: 3.2 µM
  TGI: 15.2 µM
A549 NSCLC
  GI50: 7.29 µM
  TGI: 23.9 µM
SF-268 CNS
  GI50: 6.22 µM
  TGI: 26.2 µM
SK-MEL-2 melanoma
  GI50: 1.99 µM
  TGI: 4.01 µM
MCF7 breast
  GI50: 2.9 µM
  TGI: 12.1 µM
T-47D breast
  GI50: 3.28 µM
  TGI: 15.2 µM
RXF 393 renal
  GI50: 1.98 µM
  TGI: 3.68 µM
NCI-H522 lung
  GI50: 2.26 µM
  TGI: 6.2 µM
A498 renal
  GI50: 14.2 µM
  TGI: 29.3 µM
SNB-75 CNS
  GI50: 6.07 µM
  TGI: 22.3 µM
HCC-2998 colon
  GI50: 1.93 µM
  TGI: 3.81 µM
NCI-H460 lung
  GI50: 5.56 µM
  TGI: 19.8 µM
HOP-92 NSCLC
  GI50: 1.37 µM
  TGI: 3.55 µM
UACC-257 melanoma
  GI50: 1.8 µM
  TGI: 3.88 µM
BT-549 breast
  GI50: 1.82 µM
  TGI: 3.57 µM
MALME-3M melanoma
  GI50: 2.53 µM
  TGI: 8.01 µM
MOLT-4 leukemia
  GI50: 2.71 µM
  TGI: 13.7 µM
HOP-62 NSCLC
  GI50: 2.08 µM
  TGI: 4.67 µM
RPMI-8226 leukemia
  GI50: 2.63 µM
  TGI: 7.26 µM

## CC(=O)O[C@@H]1C(=O)N(c2cnccn2)[C@H]1c1ccccc1[N+](=O)[O-]
HCT-116 colon
  GI50: 0.33 µM
  TGI: 6.77 µM
CCRF-CEM leukemia
  GI50: 0.435 µM
  TGI: > 100 µM
NCI/ADR-RES ovarian
  GI50: 0.311 µM
  TGI: 7.51 µM
SW-620 colon
  GI50: 0.396 µM
  TGI: 19.3 µM
LOX IMVI melanoma
  GI50: 0.283 µM
  TGI: 1.69 µM
OVCAR-4 ovarian
  GI50: 0.72 µM
  TGI: > 100 µM
SNB-19 CNS
  GI50: 1.86 µM
  TGI: > 100 µM
MDA-MB-231 breast
  GI50: 0.351 µM
  TGI: 4.85 µM
HT29 colon
  GI50: 2.54 µM
  TGI: 6.61 µM
DU-145 prostate
  GI50: 0.512 µM
  TGI: > 100 µM
KM12 colon
  GI50: 0.362 µM
  TGI: 19.4 µM
NCI-H226 lung
  GI50: 0.527 µM
  TGI: 9.4 µM
M14 melanoma
  GI50: 0.323 µM
  TGI: 5.98 µM
SF-295 CNS
  GI50: 0.865 µM
  TGI: 12.4 µM
MDA-MB-435
  GI50: 0.205 µM
  TGI: 0.456 µM
OVCAR-5 ovarian
  GI50: 0.55 µM
  TGI: 16.6 µM
K-562 leukemia
  GI50: 0.341 µM
  TGI: > 100 µM
HS 578T breast
  GI50: 0.92 µM
  TGI: > 100 µM
NCI-H23 lung
  GI50: 0.369 µM
  TGI: 13 µM
HL-60(TB) leukemia
  GI50: 0.288 µM
IGROV1 ovarian
  GI50: 0.529 µM
  TGI: 19 µM
ACHN renal
  GI50: 0.596 µM
  TGI: 17.4 µM
SF-539 CNS
  GI50: 0.234 µM
  TGI: 0.575 µM
SK-MEL-28 melanoma
  GI50: 0.926 µM
  TGI: 27.4 µM
U251 CNS
  GI50: 0.366 µM
  TGI: 10.6 µM
OVCAR-8 ovarian
  GI50: 0.299 µM
  TGI: 0.946 µM
TK-10 renal
  GI50: 14 µM
  TGI: 49.9 µM
COLO 205 colon
  GI50: 3.02 µM
  TGI: 11.8 µM
786-0 renal
  GI50: 0.551 µM
  TGI: 13.4 µM
UO-31 renal
  GI50: 0.616 µM
  TGI: 16.3 µM
UACC-62 melanoma
  GI50: 0.327 µM
  TGI: 18.8 µM
SK-OV-3 ovarian
  GI50: 0.781 µM
  TGI: > 100 µM
PC-3 prostate
  GI50: 0.582 µM
  TGI: 25.7 µM
CAKI-1 renal
  GI50: 0.487 µM
  TGI: 13.3 µM
EKVX NSCLC
  GI50: 0.518 µM
  TGI: > 100 µM
SN12C renal
  GI50: 0.432 µM
  TGI: 13.8 µM
A549 NSCLC
  GI50: 0.41 µM
  TGI: > 100 µM
SF-268 CNS
  GI50: 0.566 µM
  TGI: > 69.5 µM
SK-MEL-2 melanoma
  GI50: 1.96 µM
  TGI: > 100 µM
SR leukemia
  GI50: 0.35 µM
  TGI: > 100 µM
MCF7 breast
  GI50: 0.352 µM
  TGI: > 64.2 µM
T-47D breast
  GI50: 18.5 µM
  TGI: > 100 µM
HCT-15 colon
  GI50: 0.421 µM
  TGI: 14.5 µM
RXF 393 renal
  GI50: 0.52 µM
  TGI: 3.56 µM
NCI-H522 lung
  GI50: 0.184 µM
  TGI: 0.436 µM
OVCAR-3 ovarian
  GI50: 0.288 µM
  TGI: 3.3 µM
A498 renal
  GI50: > 100 µM
  TGI: > 100 µM
SNB-75 CNS
  GI50: 0.357 µM
  TGI: 3.1 µM
HCC-2998 colon
  GI50: 2.1 µM
  TGI: 10.5 µM
NCI-H460 lung
  GI50: 0.346 µM
  TGI: 10.8 µM
HOP-92 NSCLC
  GI50: 0.356 µM
  TGI: 10.9 µM
UACC-257 melanoma
  GI50: 0.992 µM
  TGI: 63 µM
BT-549 breast
  GI50: 0.295 µM
  TGI: 1.24 µM
MALME-3M melanoma
  GI50: 0.526 µM
  TGI: 40.9 µM
MOLT-4 leukemia
  GI50: 0.452 µM
  TGI: > 100 µM
HOP-62 NSCLC
  GI50: 1.14 µM
  TGI: 18.3 µM
RPMI-8226 leukemia
  GI50: 0.384 µM
  TGI: 22.8 µM
